{
  "source": "patent EP4608400B1",
  "about": "“COMPOUND FOR TREATMENT OF PAIN” (Initiator Pharma A/S, priority 2022, dated 2024)",
  "key": {"[1]": {"assay": "Phase I ascending single oral dose study: safety and tolerability", "assay_type": "in vivo, human", "method": "Study design. The study was a Phase I, randomised, double-blind, placebo-controlled, ascending single oral dose, safety, tolerability, pharmacokinetic (PK) and pharmacodynamics (PD) study of IP2015 in healthy male subjects.\nEach subject received one oral dose of IP2015 or matched placebo. […] The dose level was to be escalated to a maximum of 0.05 mg in Cohort 2 and a maximum of 0.2 mg in Cohort 3. The doses in the remaining five cohorts were to be determined based on the dose escalation criteria.\nThe randomisation schemes were generated by a statistician using SAS PROC Plan.\nThe doses used in each cohort were as follows: • Cohort 1 - 0.01 mg • Cohort 2 - 0.05 mg • Cohort 3 - 0.2 mg • Cohort 4 - 0.6 mg • Cohort 5 - 1.8 mg • Cohort 6 - 5.4 mg • Cohort 7 - 16.2 mg • Cohort 8 - 10 mg\nEvaluation. The study evaluated the clinical safety data from adverse event (AE) reporting, 12-lead electrocardiogram (ECG), cardiac telemetry, vital signs (standing and supine blood pressure (BP), heart rate (HR), oral temperature and clinical laboratory evaluations (chemistry, haematology, urinalysis) and physical examinations in healthy male subjects."}, "[2]": {"biological_target": "T1, 5-hydroxytryptamine transporter (5-HTT or SERT) (Homo sapiens, UniProt P31645)", "T1 construct": "expressed in transfected cells", "T1 sequence (P31645 whole entry)": "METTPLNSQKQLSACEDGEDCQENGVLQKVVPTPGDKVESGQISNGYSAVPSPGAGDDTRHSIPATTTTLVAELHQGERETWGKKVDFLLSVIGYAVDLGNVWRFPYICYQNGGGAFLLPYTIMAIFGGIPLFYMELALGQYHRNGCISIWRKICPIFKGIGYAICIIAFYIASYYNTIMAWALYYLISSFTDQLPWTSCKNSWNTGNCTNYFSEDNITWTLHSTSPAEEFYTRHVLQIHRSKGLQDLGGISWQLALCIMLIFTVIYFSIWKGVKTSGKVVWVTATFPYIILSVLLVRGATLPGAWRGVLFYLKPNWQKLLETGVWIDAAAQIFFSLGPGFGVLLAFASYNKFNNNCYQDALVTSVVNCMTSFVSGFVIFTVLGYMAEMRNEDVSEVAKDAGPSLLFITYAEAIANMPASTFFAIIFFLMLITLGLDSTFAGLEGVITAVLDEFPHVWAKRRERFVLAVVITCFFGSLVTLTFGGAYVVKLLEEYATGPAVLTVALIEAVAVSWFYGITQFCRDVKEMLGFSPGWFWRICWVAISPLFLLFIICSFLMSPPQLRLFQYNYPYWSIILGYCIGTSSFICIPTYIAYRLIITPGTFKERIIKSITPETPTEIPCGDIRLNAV", "assay": "Inhibition of human transporter in stable epithelial cell lines (5-HTT)", "assay_type": "cell-based", "settings": "average of two replicates (n=2)", "method": "(§1) Compounds were tested for their ability to inhibit the reuptake of the monoamine neurotransmitters dopamine (DA), noradrenaline (NA), and serotonin (5-HT) in synaptosomes as described in WO 97/16451 (NeuroSearch A/S). In addition, the compounds were tested in human epithelial cells expressing human transporters for 5-HT (SERT), dopamine (DAT), and norepinephrine (NET).\n(§2) The results are the average of two-replicates per experiment (n=2)."}, "[3]": {"biological_target": "T2, dopamine transporter (DAT) (Homo sapiens, UniProt Q01959)", "T2 construct": "expressed in transfected cells", "T2 sequence (Q01959 whole entry)": "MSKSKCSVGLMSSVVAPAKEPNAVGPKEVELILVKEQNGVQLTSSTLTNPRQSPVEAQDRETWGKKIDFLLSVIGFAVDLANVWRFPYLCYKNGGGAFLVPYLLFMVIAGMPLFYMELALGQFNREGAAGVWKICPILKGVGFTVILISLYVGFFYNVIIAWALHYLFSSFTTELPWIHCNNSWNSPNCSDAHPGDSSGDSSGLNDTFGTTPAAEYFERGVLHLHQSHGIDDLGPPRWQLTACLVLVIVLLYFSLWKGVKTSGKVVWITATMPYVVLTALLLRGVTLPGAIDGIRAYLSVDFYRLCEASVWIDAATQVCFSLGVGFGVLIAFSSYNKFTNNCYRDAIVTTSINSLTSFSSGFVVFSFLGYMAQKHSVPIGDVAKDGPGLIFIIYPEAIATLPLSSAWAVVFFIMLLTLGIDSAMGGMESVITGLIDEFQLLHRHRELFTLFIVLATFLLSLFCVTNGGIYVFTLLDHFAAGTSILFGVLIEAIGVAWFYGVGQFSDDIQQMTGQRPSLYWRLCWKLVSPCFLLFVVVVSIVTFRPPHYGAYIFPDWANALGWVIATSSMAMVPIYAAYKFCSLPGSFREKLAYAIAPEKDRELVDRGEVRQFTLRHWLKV", "assay": "Inhibition of human transporter in stable epithelial cell lines (DAT)", "assay_type": "cell-based", "settings": "average of two replicates (n=2)", "method": "as §1, §2"}, "[4]": {"tested_on": "formalin-induced flinching behaviour", "assay": "Automated rat formalin test of persistent nociceptive pain", "assay_type": "in vivo, Sprague-Dawley rats", "method": "All treatments were administered s.c. in a dosing volume of 2 ml/kg 60 min prior to formalin injection.\nAdult male Sprague-Dawley rats (Harlan Scandinavia, Alleroed, Denmark) were used. They were housed in Macrolon III cages (20 x 14 x 18 cm or 20 x 40 x18 cm; in groups of 2-5 per cage according to weight) containing wood-chip bedding material (3 x 1 x 4 mm). The environment was temperature (20 ± 2°C) and humidity (55 ± 15%) controlled and consisted of a light-dark cycle of 13:11 h (lights on at 06.00 h and off at 19.00 h). Food (Altromin®) and water were available ad libitum. The rats were allowed to habituate to the housing facilities for at least one week prior to being randomly assigned to behavioural experiments. At the end of each experiment rats were euthanized by cervical dislocation. All experiments were performed according to the Ethical Guidelines of the International Association for the Study of Pain (Zimmermann, 1983) and the Danish Committee for Experiments on Animals.\nAs highlighted in the Procedures section below 4 rats were included in each automated testing session. 4 individual treatments were assessed during the session and treatments were rotated to minimise bias associated with a particular testing chamber. […]\nAssessment of formalin-induced flinching behaviour in normal, uninjured rats (body weight 180-220 g) was made with the use of an Automated Nociception Analyser (University of California, San Diego, CA; Yaksh et al., 2001). […] They were then returned to their separate observation chambers, each of which were in turn situated upon an enclosed detection device consisting of two electromagnetic coils designed to produce an electromagnetic field in which movement of the metal band could be detected. […] In an initial formalin concentration response study, five phases of nociceptive behaviour were identified and scored according to Yaksh et al., (2001); first phase (P1=0-5 min), interphase (Int=6-15 min), early second phase (P2A=16-40 min), late second phase (P2B=41-60 min) and entire second phase (P2A+P2B=16-60 min). […]"}},
  "note": "“Also recorded” adds a separate entry of the source.",
  "data": [
    {"smiles": "COc1cc2ccc(O[C@@H]3C[C@H]4CC[C@@H](C3)N4)cc2oc1=O", "note": "[IP2015, exo-7-[(8-azabicyclo[3.2.1]octan-3-yl)oxy]-3-methoxy-chromen-2-one]", "values": [
      {"measurement": "incidence of TEAEs", "setting": "[1]; 0.01 mg to 10 mg dose range", "result": "relatively low"},
      {"measurement": "mean ECG parameters", "setting": "[1]; 0.01 mg to 10 mg dose range", "result": "no significant treatment- or dose-related trends"},
      {"measurement": "vital sign values, mean or individual subject", "setting": "[1]; 0.01 mg to 10 mg dose range", "result": "no significant treatment- or dose-related trends"},
      {"measurement": "incidence of side effects compared to the 0.01 mg to 10 mg dose range", "setting": "[1]; 16.2 mg", "result": "increased"},
      {"measurement": "subjects with sustained tachycardia for several hours", "setting": "[1]; 16.2 mg", "result": 2, "unit": "subjects"},
      {"measurement": "subjects reporting at least one TEAE", "setting": "[1]; 16.2 mg dose group (all subjects of the group)", "result": 4, "unit": "subjects"},
      {"measurement": "standing pulse rate", "setting": "[1]; 16.2 mg, 2, 3, 4, 6, 8, 10 and 12 hours postdose", "result": "increases from baseline"},
      {"measurement": "supine pulse rate", "setting": "[1]; 16.2 mg, 6, 8 and 10 hours postdose", "result": "increases from baseline"},
      {"measurement": "heart rate (ECG)", "setting": "[1]; 16.2 mg, 8 and 12 hours postdose", "result": "increases from baseline"},
      {"measurement": "subjects experiencing TEAEs", "setting": "[1]; of the 40 subjects who received IP2015, all dose groups", "result": 16, "unit": "subjects"},
      {"measurement": "total TEAEs", "setting": "[1]; the 40 subjects who received IP2015, all dose groups", "result": 32, "unit": "TEAEs"},
      {"measurement": "IC50", "setting": "[2]", "result": 297, "unit": "pM"},
      {"measurement": "IC50", "setting": "[3]", "result": 1440, "unit": "pM"},
      {"measurement": "flinches in P1, interphase and P2", "setting": "[4]; 1, 3, 10, 30 mg/kg s.c., 60 min prior to 5% formalin", "result": "reduced the prevalence of flinches; also recorded: robust dose-dependent inhibition"},
      {"measurement": "observation in rats of the formalin test", "setting": "[4]; 10 or 30 mg/kg s.c., all rats", "result": "spontaneous erections and/or ejaculations"},
      {"measurement": "minimal effective dose", "setting": "[4]; s.c., especially during interphase and 2nd phase, stated as likely", "result": "< 3", "unit": "mg/kg"}
    ]}
  ]
}
